Among the data in ChEMBL document CHEMBL5390221, “Synthesis and biological activity assay of novel camptothecin-peptidic conjugates based on PEPT1” (Bioorg Med Chem Lett, 2023) are IC50 and inhibition values, retold here.

The nature of assay [1]: Cytotoxicity against human MPC2 cells assessed as inhibition of cell growth. Type of assay: functional, cell-based.
Another assay has as its system Hep 3B2. The assay is described as follows: Cytotoxicity against human Hep3B cells assessed as inhibition of cell growth. The class given is functional, cell-based.
A further assay relates to BXPC-3. The assay is described as follows: Cytotoxicity against human BXPC-3 cells assessed as inhibition of cell growth. Type of assay: functional, cell-based.
The subject of another assay is HepG2. The assay is described as follows: Cytotoxicity against human HepG2 cells assessed as inhibition of cell growth. Type of assay: functional, cell-based.
A further assay concerns DU-145. The assay is described as follows: Cytotoxicity against human DU-145 cells assessed as inhibition of cell growth. The class given is functional, cell-based.
The test system of the next assay is NCI-H520. The assay is described as follows: Cytotoxicity against human NCI-H520 cells assessed as inhibition of cell growth. The class given is functional, cell-based.
The target in assay [2] is T1, Solute carrier family 15 member 1 (Homo sapiens) (UniProt P46059).
T1 sequence (whole entry): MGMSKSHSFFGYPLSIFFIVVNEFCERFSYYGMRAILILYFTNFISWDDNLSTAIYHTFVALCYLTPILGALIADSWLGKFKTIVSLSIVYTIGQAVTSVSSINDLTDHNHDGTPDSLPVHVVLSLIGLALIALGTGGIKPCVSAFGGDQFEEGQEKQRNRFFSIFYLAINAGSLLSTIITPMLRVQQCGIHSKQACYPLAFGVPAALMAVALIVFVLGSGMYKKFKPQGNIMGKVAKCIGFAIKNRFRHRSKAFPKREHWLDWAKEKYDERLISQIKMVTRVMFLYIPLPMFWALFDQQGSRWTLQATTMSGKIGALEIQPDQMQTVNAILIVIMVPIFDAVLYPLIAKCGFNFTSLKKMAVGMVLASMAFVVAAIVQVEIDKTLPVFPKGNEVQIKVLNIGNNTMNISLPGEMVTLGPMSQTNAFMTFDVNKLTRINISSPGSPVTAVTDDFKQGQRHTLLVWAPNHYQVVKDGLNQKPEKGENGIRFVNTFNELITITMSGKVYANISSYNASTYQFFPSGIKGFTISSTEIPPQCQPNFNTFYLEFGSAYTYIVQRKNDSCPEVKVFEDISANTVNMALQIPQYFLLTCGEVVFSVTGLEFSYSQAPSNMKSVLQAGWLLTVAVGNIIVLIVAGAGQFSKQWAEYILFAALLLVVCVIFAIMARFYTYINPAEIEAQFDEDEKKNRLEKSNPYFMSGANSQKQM
The assay is described as follows: Inhibition of PEPT1 (unknown origin) expressed in HEK293T cells assessed as inhibition of PEPT1 mediated Gly-Sar uptake using Gly-Sar as substrate at 20 uM relative to control. Type of assay: cell-based.

With `CC[C@@]1(OC(=O)CNC(=O)[C@H](CC(N)=O)NC(=O)OC(C)(C)C)C(=O)OCc2c1cc1n(c2=O)Cc2cc3ccccc3nc2-1`, the IC50 was 260 nM in assay [1]; 784 nM in the assay with Hep 3B2; 84.2 nM in the assay on BXPC-3; 88.6 nM with HepG2; 89.9 nM with DU-145; 58 nM in the assay with NCI-H520. Further, the inhibition in assay [2] was over 50%.
On to `CC[C@@]1(OC(=O)CNC(=O)CNC(C)=O)C(=O)OCc2c1cc1n(c2=O)Cc2cc3ccccc3nc2-1`, for which the IC50 is 153 nM in assay [1]; 767 nM with Hep 3B2; 75.2 nM in the assay with BXPC-3; 59.1 nM in the assay on HepG2; 76.1 nM in the assay with DU-145; 98.6 nM with NCI-H520.
On to `CC[C@@]1(OC(=O)CNC(=O)[C@@H](NC(=O)OC(C)(C)C)C(C)C)C(=O)OCc2c1cc1n(c2=O)Cc2cc3ccccc3nc2-1`, for which the IC50 in assay [1] was 204 nM; with Hep 3B2, 872 nM; in the assay with BXPC-3 it was 143 nM; in the assay on HepG2 it was 197 nM; in the assay on DU-145, 78.8 nM; in the assay with NCI-H520, 78.5 nM.
For `CC[C@@]1(OC(=O)CNC(=O)[C@H](C)NC(C)=O)C(=O)OCc2c1cc1n(c2=O)Cc2cc3ccccc3nc2-1`, the IC50 in assay [1] turned out to be 91.4 nM; with Hep 3B2, 1010 nM; with BXPC-3, 108 nM; in the assay with HepG2, 88.7 nM; in the assay on DU-145 it was 67.5 nM; in the assay on NCI-H520, 69.3 nM.
On to `CC[C@@]1(OC(=O)CNC(=O)C(C)C)C(=O)OCc2c1cc1n(c2=O)Cc2cc3ccccc3nc2-1`, for which the IC50 in assay [1] stood at 97.1 nM; with Hep 3B2, 969 nM; with BXPC-3, 167 nM; with HepG2 it was 129 nM; in the assay with DU-145, 55.4 nM; in the assay on NCI-H520, 87.2 nM.
With `CC[C@@]1(OC(=O)CNC(=O)[C@H](CCC(N)=O)NC(=O)OC(C)(C)C)C(=O)OCc2c1cc1n(c2=O)Cc2cc3ccccc3nc2-1`, the IC50 in assay [1] was 387 nM; in the assay with Hep 3B2, 999 nM; in the assay with BXPC-3, 121 nM; in the assay on HepG2 it was 144 nM; in the assay with DU-145 it was 144 nM; in the assay on NCI-H520, 135 nM. In assay [2], the inhibition is over 50%.
As for `CC[C@@]1(OC(=O)CNC(=O)[C@H](CC(C)C)NC(=O)OC(C)(C)C)C(=O)OCc2c1cc1n(c2=O)Cc2cc3ccccc3nc2-1`, the IC50 in assay [1] was 125 nM; with Hep 3B2, 1060 nM; with BXPC-3, 162 nM; with HepG2 it was 87.6 nM; in the assay with DU-145, 44.6 nM; with NCI-H520 it was 34.8 nM.
Turning to `CC[C@H](C)[C@H](NC(C)=O)C(=O)NCC(=O)O[C@]1(CC)C(=O)OCc2c1cc1n(c2=O)Cc2cc3ccccc3nc2-1`, the IC50 in assay [1] was found to be 197 nM; with Hep 3B2, 847 nM; in the assay with BXPC-3, 153 nM; in the assay on HepG2 it was 70.4 nM; in the assay on DU-145, 94.4 nM; in the assay with NCI-H520, 109 nM.
In the case of `CC[C@@]1(O)C(=O)OCc2c1cc1n(c2=O)Cc2cc3ccccc3nc2-1` [CAMPTOTHECIN], the IC50 in assay [1] came to 83.7 nM; in the assay with Hep 3B2 it was 434 nM; with BXPC-3 it was 62.5 nM; in the assay on HepG2, 33.2 nM; in the assay on DU-145, 33.5 nM; with NCI-H520, 25 nM.
Regarding `CC[C@@]1(OC(=O)CNC(=O)[C@@H](NC(C)=O)C(C)C)C(=O)OCc2c1cc1n(c2=O)Cc2cc3ccccc3nc2-1`, the IC50 in assay [1] is 209 nM; in the assay on Hep 3B2, 914 nM; in the assay with BXPC-3, 54.8 nM; in the assay on HepG2, 150 nM; in the assay with DU-145, 87 nM; in the assay on NCI-H520, 125 nM. The inhibition in assay [2] was over 50%.
Consider `CC[C@H](C)[C@H](NC(=O)OC(C)(C)C)C(=O)NCC(=O)O[C@]1(CC)C(=O)OCc2c1cc1n(c2=O)Cc2cc3ccccc3nc2-1`, for which the IC50 in assay [1] came out at 166 nM; in the assay with Hep 3B2 it was 1770 nM; with BXPC-3 it was 222 nM; in the assay on HepG2, 176 nM; with DU-145 it was 97 nM; with NCI-H520, 58.5 nM.
As to `CC[C@@]1(OC(=O)CNC(=O)[C@H](Cc2ccccc2)NC(C)=O)C(=O)OCc2c1cc1n(c2=O)Cc2cc3ccccc3nc2-1`, the IC50 in assay [1] was found to be 102 nM; in the assay with Hep 3B2 it was 973 nM; in the assay with BXPC-3 it was 89.5 nM; with HepG2, 60.4 nM; in the assay on DU-145 it was 51.7 nM; in the assay on NCI-H520, 56.9 nM. Further, the inhibition in assay [2] is over 50%.
As to `CCCC(=O)NCC(=O)O[C@]1(CC)C(=O)OCc2c1cc1n(c2=O)Cc2cc3ccccc3nc2-1`, the IC50 in assay [1] was determined as 106 nM; in the assay with Hep 3B2, 1510 nM; in the assay with BXPC-3, 157 nM; with HepG2, 91.8 nM; in the assay with DU-145, 55 nM; in the assay with NCI-H520 it was 153 nM. In addition, the inhibition in assay [2] is over 50%.
`CC[C@@]1(OC(=O)CNC(=O)[C@H](C)NC(=O)OC(C)(C)C)C(=O)OCc2c1cc1n(c2=O)Cc2cc3ccccc3nc2-1`: the IC50 in assay [1] turned out to be 180 nM; in the assay with Hep 3B2, 850 nM; in the assay with BXPC-3, 92.8 nM; in the assay on HepG2, 114 nM; with DU-145, 68.1 nM; with NCI-H520, 67.9 nM.
Take `CCC(=O)NCC(=O)O[C@]1(CC)C(=O)OCc2c1cc1n(c2=O)Cc2cc3ccccc3nc2-1`: the IC50 in assay [1] was 155 nM; with Hep 3B2, 1010 nM; with BXPC-3, 123 nM; with HepG2, 109 nM; in the assay on DU-145, 52.8 nM; with NCI-H520, 166 nM. Besides, in assay [2], the inhibition was over 50%.
Regarding `CC[C@@]1(OC(=O)CNC(=O)[C@H](Cc2ccccc2)NC(=O)OC(C)(C)C)C(=O)OCc2c1cc1n(c2=O)Cc2cc3ccccc3nc2-1`, the IC50 was determined as 206 nM in assay [1]; 1120 nM in the assay with Hep 3B2; 97.7 nM in the assay with BXPC-3; 74.7 nM in the assay with HepG2; 74.3 nM in the assay on DU-145; 54.9 nM in the assay with NCI-H520.
Turning to `CCCCCC(=O)NCC(=O)O[C@]1(CC)C(=O)OCc2c1cc1n(c2=O)Cc2cc3ccccc3nc2-1`, the IC50 stood at 79.4 nM in assay [1]; 1530 nM with Hep 3B2; 105 nM in the assay on BXPC-3; 114 nM with HepG2; 46.1 nM in the assay with DU-145; 162 nM in the assay on NCI-H520.
